According to patent US20250186313A1, “SCALP OR HAIR CARE COMPOSITION COMPRISING NANO-CARBON STRUCTURE” (INBCT Co., Ltd., priority 2022, published 2025):

What was measured:
[1] = test system: artificial skin model KeraSkin; experiment: Skin barrier function improvement in SDS-damaged KeraSkin (TEER, TEWL, H&E, immunohistochemistry); assay type: cell-based, human; settings: KeraSkin damaged with 2% SDS, 10 μM retinoic acid or 0.01 wt % NGO
Protocol: After treating the surface of KeraSkin with SDS (sodium dodecyl sulfate), which is an anionic surfactant, to weaken the skin's natural barrier function, a positive control material (10 μM retinoic acid) and a test material (0.01 wt % NGO) were added to the surface for 48 days. In order to evaluate the degree of improvement in the skin barrier function weakened by SDS by 48-hour application treatment, electrical resistance in epithelial tissue was measured by using the Millipore ERS-2 (Millipore, USA) system, and transepidermal water loss was measured by using the GPSKIN BARRIER PRO-II system, and histopathology was performed on four types of skin barrier markers through immunochemical staining.
The epithelial cell layer has developed tight junctions, which are one of the forms of bonding between cells. These tight junctions form physical and chemical barriers, and the strength and integrity of these barriers can be assessed through the degree of electrical resistance across cell layers, which are called “transepithelial electrical resistance (TEER).” As the barrier function is excellent, the transepithelial electrical resistance value increases.
Transdermal moisture is an essential element for the skin to perform its barrier function normally, and when “transepidermal water loss (TEWL)” increases, the enzyme function required for normal exfoliation is damaged, and it is not possible to normally perform the skin barrier functions. Therefore, transepidermal water loss is used as an important physiological indicator during the damage and recovery process of the skin barrier.

[2] = test system: artificial skin model KeraSkin; experiment: Skin corrosion test using artificial skin model KeraSkin (MTT); assay type: cell-based, human; settings: negative control (deionized water) = 100%, nano-carbon structure at 0.1 wt % (1 mg/mL)
Source text: The inventors of the present invention evaluated the skin corrosion properties of nano-carbon structures by using the artificial skin model […] is an artificial skin model that reproduces the skin's epithelium using human-derived skin keratinocytes and is manufactured to be similar to real skin in terms of morphology, microstructure and biomarker expression.

[3] = test system: artificial skin model KeraSkin; experiment: Skin irritation test using artificial skin model KeraSkin (MTT); settings: negative control (DPBS) = 100%, nano-carbon structure at 0.1 wt % (1 mg/mL)
Protocol: The inventors of the present invention evaluated the skin irritation of nano-carbon structures using the artificial skin model KeraSkin.
Specifically, the inventors of the present invention attempted to predict the possibility of skin irritation by measuring the damage to skin cells that appear while penetrating the stratum corneum of KeraSkin after sample treatment. This experiment used MTT, which is a reagent for measuring the cell viability of test materials, and was performed in compliance with the Cosmetic Risk Assessment Guidelines (Ministry of Food and Drug Safety, 2013) and Cosmetic Toxicity Test Animal Alternative Test Method Guideline V: Skin Irritation Test Method Using a Human Skin Model (Ministry of Food and Drug Safety, 2014).

Compound: CC1=C(/C=C/C(C)=C/C=C/C(C)=C/C(=O)O)C(C)(C)CCC1 [retinoic acid]
- increase of transepithelial electrical resistance compared to the barrier damaged group [1]: 16.1%
- reduction of transepidermal water loss compared to the barrier damaged group [1]: 10.8%
- transepithelial electrical resistance (TEER) ([1]; 48-hour application, normal 1726.8±85.3, damaged 69.2±2.1): 347.0±15.7 Ω·cm^2
- transepidermal water loss (TEWL) rate compared to the negative control group ([1]; damaged group 133.7±3.2%): 122.9±6.5%

Compound: [K+].[OH-] [8N KOH, Potassium hydroxide]
- cell viability ([2]; applied for 3 minutes): 1.6%
- cell viability ([2]; applied for 1 hour): 0.6%

Compound: CCCCCCCCCCCCOS(=O)(=O)[O-].[Na+] [5% SDS, sodium dodecyl sulfate]
- cell viability [3]: 1.6%
